Experimental findings from article PMC12246756 (Frontiers in Pharmacology, 2025) are described below.

Bounds are passed on as bounds.

In one assay the test system is A375 (melanoma). As to the kind of experiment: Sulforhodamine B (SRB) assay, A375. Format: cell-based. Conditions: Homo sapiens; for IC50: A-375, 48 h, read-out: IC50 (µM) A375. The source says:
(§1) Roswell Park Memorial Institute (RPMI)-1640 medium, Dulbecco’s modified eagle medium high glucose (DMEM; Gibco) supplemented with 10% Fetal Bovine Serum (FBS; Gibco, and 1% antibiotic-antimycotic (Gibco; Anti-Anti 100x), phosphate-buffered saline (PBS; Gibco), 0.25% trypsin (Gibco), sodium pyruvate (Sigma-Aldrich), HEPES (Gibco). Human cancer cell lines A549 (lung carcinoma), MCF-7 (breast carcinoma), MDAMB-231 (breast carcinoma), A375 (melanoma), and normal human embryonic kidney cells (HEK-293) were taken from Dr. Sheikh Tasduq Abdullah and Dr. Boobalan Gopu (CSIR-IIIM).
(§2) Their activity was tested against human cancer cell lines A549 (lung carcinoma), MCF-7 (breast carcinoma), MDAMB-231 (breast carcinoma), and A375 (melanoma). The selectivity index (SI) was calculated against normal human embryonic kidney cells (HEK-293) to determine cytotoxic selectivity. The cells (7 × 10^3 cells/well) were seeded on 96 well plates, followed by overnight incubation. Multiple concentrations (50 µM, 20 µM, 10 µM, 5 µM, and 1 µM) of compounds were used to treat the cells, except for control wells that contained only cells with media. After 48 h of incubation, the cells attached to wells were fixed with 50 µL of chilled 50% TCA, and the plate was kept at 4°C for 1 h, as described previously ([Malik et al., 2023]; [Kumar et al., 2024]). The plate was washed (3–4 times) with distilled water (250 µL/well) and air-dried for 24 h. The next day, 100 µL of 0.4% SRB dye was added to each well, and the cells were incubated at room temperature for 1 h. The plate contents were discarded and washed 3 times with 1% glacial acetic acid (250 µL/well), followed by one last wash with distilled water and air drying for another 24 h. Subsequently, 100 µL of Tris base (10 mM, pH 10.5) was added to each well to dissolve the dye bound to fixed cells. The dissolved dye indicating growth inhibition was quantified by calculating optical density at 540 nm via microplate reader (Tecan infinite M200PRO, Switzerland). The IC50 values were calculated using GraphPad Prism Software Version 5.0. A favorable Selectivity Index (SI) is the most relevant parameter to detect anti-cancer potential in vitro as it indicates drug safety against cancer cells versus normal cells, efficacy of the drug, and selectivity. The selectivity index is calculated by using the formula. Selective Index=IC50 in Normal cells/IC50 in Cancerous cell lines
In general terms: In SRB staining, fixed cells bind dye roughly in proportion to their protein.

The next assay has as its system MCF-7 (breast carcinoma). Briefly: Sulforhodamine B (SRB) assay, MCF-7. Format: cell-based. The note with it: Homo sapiens, MCF7, 48 h, read-out: IC50 (µM) MCF-7.
Description: as §1, §2

The next assay concerns A549 (lung carcinoma). Briefly: Sulforhodamine B (SRB) assay, A549. Format: cell-based. The note with it: Homo sapiens, A549, 48 h, read-out: IC50 (µM) A549.
Description: as §1, §2

The test system of assay [1] is A375 cells. Briefly: Wound healing (cell scratch) assay. Format: cell-based, human. The procedure:
Cell scratch assay, also known as wound healing assay, was performed to evaluate the impact of 3g on migration of A375 cells. The cells were seeded into the 6-well plate with […] density. The next day, in fresh media, a horizontal scratch was administered in the 90% confluent monolayer using a sterile 200 µL tip, as described previously, with slight modification ([Kumar et al., 2024]). The cells were incubated for 48 h with multiple concentrations of 3g such as 30 µM, 20 µM, 10 µM and 1 µM. Wound healing was observed using a Digital Inverted Fluorescence Microscope (Life Technologies EVOS FLc). The percentage of wound healing was calculated as. Wound Closure (%)=[…]

Assay [2] has as its system A375 cells. As to the kind of experiment: Colony formation assay. Format: cell-based, human. As to the method: A colony formation assay was performed to assess the ability of 3g to inhibit the reproductive and colony forming ability of A375 cells. The cells were seeded into a 6-well plate with a 1 × 10^3 cells/well density. Next day, the cells were treated with multiple concentrations of 3g, such as 30 µM, 20 µM, 10 µM and 1 µM, in fresh media for 48 h. The media was changed on alternate days till day 10, till untreated (negative control) became confluent. On day 10, the cells were washed with PBS, and colonies were observed under a microscope. The cells/colonies were fixed with 100% methanol for 20 min at 4°C and stained with 0.5% solution of crystal violet for 30 min at room temperature, as described previously ([Kumar et al., 2024]). Subsequently, the dye was removed from plates, and excess dye was rinsed by washing it with distilled water (3–5 times), followed by air drying. The colonies were counted using ImageJ software, and photographs were taken with a digital camera. The percentage of colonies formed was calculated using the formula mentioned below. Colony formation rate (%)=Number of colonies in treatment group/Number of colonies in control group×100

For assay [3], the system named is MDA-MB 231 (breast carcinoma). As to the kind of experiment: Sulforhodamine B (SRB) assay, MDA-MB 231. Format: cell-based. The note with it: Homo sapiens, MDA-MB-231, 48 h, read-out: IC50 (µM) MDA-MB 231.
Description: as §1, §2

Assay [4] deals with normal human embryonic kidney cells (HEK-293). As to the kind of experiment: Sulforhodamine B (SRB) assay, normal cells HEK-293. Format: cell-based. Conditions: HEK293, 48 h, normal cell line, mean ± SD (n = 3).
Description: as §1, §2

By IC50 is commonly meant the concentration that gives 50% inhibition. The inhibition is the drop in the measured response relative to a control, in per cent. For the molecule `CCOC(=O)C1=C(C(F)(F)C(F)(F)F)NC(=O)NC1c1c2c(c(OC)c(OC)c1OC)-c1ccc(OC)c(=O)cc1[C@@H](NC(C)=O)CC2` (stereo partly drawn) [Compound 3g, Ethyl 4-((S)-7-acetamido-1,2,3,10-tetramethoxy-9-oxo-5,6,7,9-tetrahydrobenzo [a]heptalen-4-yl)-2-oxo-6-(perfluoroethyl)-1,2,3,4-tetrahydropyrimidine-5-carboxylate], the half-maximal inhibitory concentration (IC50) is 10.3 ± 0.56 µM in the assay with A375 (melanoma); 15.7 ± 0.39 µM with MCF-7 (breast carcinoma); greater than 50 µM in the assay with A549 (lung carcinoma); 24.9 ± 2.7 µM in assay [3]; 15.8 ± 0.81 µM in assay [4]. Further, the inhibition at 20 µM with A375 (melanoma) (A-375, read-out: growth inhibition) worked out at 60%. In addition, the “percentage of wound closure” value in the assay on A375 cells [1] (20 µM, 48 h, A375 cells, untreated control 84%) is listed as 69%. In addition, the “reduction of migration potential” value in the assay with A375 cells [1] (melanoma cells (abstract)) was determined as 69%. Further, the “percentage of colony growth formation” value with A375 cells [2] (20 µM, 48 h treatment, A375 cells, untreated control 100%) is on record as 37.5%. Moreover, the “inhibition of colony formation” value with A375 cells [2] (melanoma cells (abstract)) was “up to 62.5%”.
`CCOC(=O)C1=C(C(F)(F)C(F)(F)F)NC(=O)NC1c1c2c(c(OC)c(OC)c1OC)-c1ccc(OC)c(=O)cc1[C@H](NC(C)=O)CC2` (stereo partly drawn) [Compound 3f, Ethyl 4-((R)-7-acetamido-1,2,3,10-tetramethoxy-9-oxo-5,6,7,9-tetrahydrobenzo [a]heptalen-4-yl)-2-oxo-6-(perfluoroethyl)-1,2,3,4-tetrahydropyrimidine-5-carboxylate]: the concentration for half-maximal inhibition (IC50) in the assay with A375 (melanoma) is 28.3 ± 2.19 µM; in the assay with MCF-7 (breast carcinoma) it was 26.4 ± 2.79 µM; with A549 (lung carcinoma), greater than 50 µM; in assay [3], 46.6 ± 0.86 µM; in assay [4], 17.8 ± 1.3 µM.
For `COc1c(OC)c2c(c(C3NC(=O)NC(C)=C3C(=O)Oc3ccccc3)c1OC)CC[C@@H](NC(C)=O)c1cc(=O)c(OC)ccc1-2` (stereo partly drawn) [Compound 3c, phenyl 4-((R)-7-acetamido-1,2,3,10-tetramethoxy-9-oxo-5,6,7,9-tetrahydrobenzo [a]heptalen-4-yl)-6-methyl-2-oxo-1,2,3,4-tetrahydropyrimidine-5-carboxylate] the same measures were greater than 50 µM, 44.8 ± 0.68 µM, greater than 50 µM, greater than 50 µM and 35.6 ± 2.97 µM.
As to `COC1=C(C(=O)C2CC2)C(c2c3c(c(OC)c(OC)c2OC)-c2ccc(OC)c(=O)cc2[C@H](NC(C)=O)CC3)NC(=O)N1` (stereo partly drawn) [Compound 3i, N-((7R)-4-(5-(cyclopropanecarbonyl)-6-methoxy-2-oxo-1,2,3,4-tetrahydropyrimidin-4-yl)-1,2,3,10-tetramethoxy-9-oxo-5,6,7,9-tetrahydrobenzo [a]heptalen-7-yl) acetamide], the half-maximal inhibitory concentration (IC50) in the assay on A375 (melanoma) is greater than 50 µM; in the assay on MCF-7 (breast carcinoma) it was greater than 50 µM; in the assay with A549 (lung carcinoma) it was greater than 50 µM; in assay [4], 39.5 ± 1.36 µM.
Take `CCOC(=O)C1=C(C)NC(=S)NC1c1c2c(c(OC)c(OC)c1OC)-c1ccc(OC)c(=O)cc1[C@H](NC(C)=O)CC2` (stereo partly drawn) [Compound 3a]: the IC50 in the assay on A375 (melanoma) is greater than 50 µM; with MCF-7 (breast carcinoma), 40.6 ± 0.91 µM; in the assay on A549 (lung carcinoma), greater than 50 µM; in assay [3], greater than 50 µM; in assay [4], 29.66 ± 0.07 µM.
Consider `CCOC(=O)C1=C(c2cc(F)c(Cl)nc2Cl)NC(=O)NC1c1c2c(c(OC)c(OC)c1OC)-c1ccc(OC)c(=O)cc1[C@H](NC(C)=O)CC2` (stereo partly drawn) [Compound 3e, Ethyl 4-((R)-7-acetamido-1,2,3,10-tetramethoxy-9-oxo-5,6,7,9-tetrahydrobenzo [a]heptalen-4-yl)-6-(2,6-dichloro-5-fluoropyridin-3-yl)-2-oxo-1,2,3,4-tetrahydropyrimidine-5-carboxylate], for which the half-inhibitory concentration (IC50) with A375 (melanoma) was greater than 50 µM; with MCF-7 (breast carcinoma), 45.1 ± 0.73 µM; with A549 (lung carcinoma) it was greater than 50 µM; in assay [3], greater than 50 µM; in assay [4], 40.3 ± 1.71 µM.
Consider `CCOC(=O)C1=C(C(Cl)(Cl)Cl)NC(=O)NC1c1c2c(c(OC)c(OC)c1OC)-c1ccc(OC)c(=O)cc1[C@H](NC(C)=O)CC2` (stereo partly drawn) [Compound 3d, Ethyl 4-((R)-7-acetamido-1,2,3,10-tetramethoxy-9-oxo-5,6,7,9-tetrahydrobenzo [a]heptalen-4-yl)-2-oxo-6-(trichloromethyl)-1,2,3,4-tetrahydropyrimidine-5-carboxylate], for which the half-inhibitory concentration (IC50) is greater than 50 µM in the assay on A375 (melanoma); 43.79 ± 0.33 µM in the assay on MCF-7 (breast carcinoma); greater than 50 µM in the assay with A549 (lung carcinoma); greater than 50 µM in assay [3]; 36.1 ± 1.79 µM in assay [4].
With `CCOC(=O)C1=C(OCC)NC(=O)NC1c1c2c(c(OC)c(OC)c1OC)-c1ccc(OC)c(=O)cc1[C@H](NC(C)=O)CC2` (stereo partly drawn) [Compound 3h, ethyl 4-((R)-7-acetamido-1,2,3,10-tetramethoxy-9-oxo-5,6,7,9-tetrahydrobenzo [a]heptalen-4-yl)-6-ethoxy-2-oxo-1,2,3,4-tetrahydropyrimidine-5-carboxylate], the IC50 in the assay on A375 (melanoma) is 35.2 ± 2.79 µM; in the assay with MCF-7 (breast carcinoma), 49.9 ± 2.72 µM; with A549 (lung carcinoma), greater than 50 µM; in assay [3], greater than 50 µM; in assay [4], 26.6 ± 2.65 µM.
Take `CCOC(=O)C1=C(C)NC(=N)NC1c1c2c(c(OC)c(OC)c1OC)-c1ccc(OC)c(=O)cc1[C@H](NC(C)=O)CC2` (stereo partly drawn) [Compound 3b, Ethyl 4-((R)-7-acetamido-1,2,3,10-tetramethoxy-9-oxo-5,6,7,9-tetrahydrobenzo [a]heptalen-4-yl)-2-imino-6-methyl-1,2,3,4-tetrahydropyrimidine-5-carboxylate]: the 50% inhibitory concentration (IC50) in the assay with A375 (melanoma) was greater than 50 µM; in the assay on MCF-7 (breast carcinoma) it was 44.7 ± 0.64 µM; with A549 (lung carcinoma), greater than 50 µM; in assay [3], greater than 50 µM; in assay [4], 38.3 ± 1.36 µM.
On to `COC1=C(C(=O)C2CC2)C(c2c3c(c(OC)c(OC)c2OC)-c2ccc(OC)c(=O)cc2[C@@H](NC(C)=O)CC3)NC(=O)N1` (stereo partly drawn) [Compound 3j, N-((7S)-4-(5-(cyclopropanecarbonyl)-6-methoxy-2-oxo-1,2,3,4-tetrahydropyrimidin-4-yl)-1,2,3,10-tetramethoxy-9-oxo-5,6,7,9-tetrahydrobenzo [a]heptalen-7-yl) acetamide], for which the half-maximal inhibitory concentration (IC50) in the assay with A375 (melanoma) was greater than 50 µM; in the assay on MCF-7 (breast carcinoma), greater than 50 µM; in the assay on A549 (lung carcinoma), greater than 50 µM; in assay [3] it was greater than 50 µM; in assay [4] it was 39 ± 0.79 µM.
